For one compound, Ki results are on record in article PMC4523432 (Molecular oncology, 2015).

Each structure is given as a SMILES string.

For this experiment, the target named is T1, Musashi-1 (MSI1) (Mus musculus, UniProt Q61474).
T1 sequence (Q61474 20-107): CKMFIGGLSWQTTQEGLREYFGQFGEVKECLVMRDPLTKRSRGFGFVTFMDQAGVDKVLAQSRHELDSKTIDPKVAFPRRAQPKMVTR
As to the kind of experiment: SPR on immobilized GB1-RBD1, 1H-15N HSQC NMR titration. It is filed as binding.

As to `Cc1cc2c(C(C)C)c(O)c(O)c(C=O)c2c(O)c1-c1c(C)cc2c(C(C)C)c(O)c(O)c(C=O)c2c1O` [(–)-G, (–)-gossypol], affinity was put at a Ki of 476 ± 273 nM.
